This passage reports TGI and GI50 results from PubChem BioAssay (NCI).

SMILES strings stand for the structures.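 Assay format: 96-well plates, 48-hour exposure. Abbreviation: GI50, concentration required for 50% inhibition of growth. Definition used: TGI = concentration required for complete inhibition of growth.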 A value given as a limit tells only on which side of the number the result lay.

Among the test systems are HOP-92 NSCLC; NCI-H23 lung; NCI-H226 lung; UACC-62 melanoma; CAKI-1 renal; RPMI-8226 leukemia; SK-OV-3 ovarian; HCT-116 colon; SK-MEL-2 melanoma; SK-MEL-28 melanoma.
Experiment in all cases: inhibition of tumour cell growth, NCI panel, 48 h

As to `C#CC1/C(=C\C(=O)OC)CCCC1O` (stereo unspecified), the TGI with HOP-92 NSCLC, in the test with NCI-H23 lung, in the test with NCI-H226 lung, in the test on UACC-62 melanoma, with CAKI-1 renal and in the test on RPMI-8226 leukemia was over 100 µM throughout. The TGI with SK-OV-3 ovarian, with HCT-116 colon and with SK-MEL-2 melanoma was over 100 µM each time.

Consider `C=CCC1(c2ccc(OC)cc2)C=CC(=O)CC1` (stereo unspecified), for which the TGI in the test with HOP-92 NSCLC, in the test on NCI-H23 lung, in the test on NCI-H226 lung, with UACC-62 melanoma, with CAKI-1 renal and in the test with SK-MEL-28 melanoma was over 100 µM throughout. In addition, the TGI in the test with SK-OV-3 ovarian and in the test on HCT-116 colon was over 100 µM in each case.

As to `CN1C(=O)c2ccccc2NC(=O)C12O[C@@H]2c1ccccc1` (stereo partly specified), the TGI with HOP-92 NSCLC, with NCI-H23 lung, with UACC-62 melanoma, with CAKI-1 renal, with SK-MEL-28 melanoma and with RPMI-8226 leukemia was over 100 µM throughout. Further, the TGI with HCT-116 colon and in the test on SK-MEL-2 melanoma was over 100 µM in each case.

Turning to `COc1cc(Cl)cc(-c2nn(-c3cccc(NC(=O)c4ccc(N5CCOCC5)c(C(F)(F)F)c4)c3)cc2-c2ccncc2)c1`, the GI50 in the test with NCI-H23 lung was 30.7 µM; in the test with NCI-H226 lung, 93.4 µM; in the test with UACC-62 melanoma, 9.1 µM; with CAKI-1 renal, 4.4 µM; in the test on SK-MEL-28 melanoma, 14.8 µM; in the test with RPMI-8226 leukemia it was 1.5 µM. Further, the values for the GI50 in the test on SK-OV-3 ovarian, with HCT-116 colon and with SK-MEL-2 melanoma were over 100 µM, 9.64 µM and 21.1 µM, respectively. The TGI with NCI-H23 lung, with NCI-H226 lung, in the test on UACC-62 melanoma, in the test on CAKI-1 renal, in the test with SK-MEL-28 melanoma and in the test with RPMI-8226 leukemia was over 100 µM each time. For the same compound, the TGI in the test on SK-OV-3 ovarian, in the test with HCT-116 colon and in the test with SK-MEL-2 melanoma was over 100 µM each time.

Regarding `Cc1ccc(C)c(NC(=O)c2cccc([N+](=O)[O-])c2O)c1`, the TGI is 41.3 µM in the test with HOP-92 NSCLC; 49 µM in the test with NCI-H23 lung; 68.8 µM in the test on NCI-H226 lung; 82.9 µM with UACC-62 melanoma; over 100 µM in the test with CAKI-1 renal; over 100 µM in the test on SK-MEL-28 melanoma. Moreover, the TGI is over 100 µM in the test on RPMI-8226 leukemia, over 100 µM in the test with SK-OV-3 ovarian and 81 µM in the test on HCT-116 colon.

On to `CCC(C)(C)c1ccc(OCCCCNC(=O)c2ccc3ccccc3c2O)c(C(C)(C)CC)c1`, for which the TGI in the test on NCI-H23 lung was over 100 µM; in the test with NCI-H226 lung it was 44.7 µM; in the test with UACC-62 melanoma, 92.4 µM; in the test on CAKI-1 renal, over 100 µM; with SK-MEL-28 melanoma, over 100 µM; with SK-OV-3 ovarian, over 100 µM. The figures for the TGI in the test with HCT-116 colon and with SK-MEL-2 melanoma were over 100 µM and 62 µM, respectively.

Consider `COC(=O)/C(=C/c1ccc(OC)cc1)C(C(=O)O)=C1CCCC1`, for which the TGI in the test on HOP-92 NSCLC, in the test with NCI-H23 lung, in the test with NCI-H226 lung, in the test with UACC-62 melanoma, in the test with CAKI-1 renal and in the test with RPMI-8226 leukemia was over 100 µM each time. For the same compound, the TGI with SK-OV-3 ovarian, in the test with HCT-116 colon and in the test on SK-MEL-2 melanoma was over 100 µM throughout.

With `COc1ccc(OCC(=O)O)c2c1CCCC2=O`, the TGI in the test with HOP-92 NSCLC, in the test with NCI-H23 lung, in the test on NCI-H226 lung, in the test with UACC-62 melanoma, with SK-MEL-28 melanoma and in the test with RPMI-8226 leukemia was over 100 µM each time. Further, the TGI in the test with SK-OV-3 ovarian, with HCT-116 colon and in the test on SK-MEL-2 melanoma was over 100 µM throughout.

As for `CN(C)C(=S)/N=c1\sn(C)/c(=N\C(=S)N(C)C)n1C`, the TGI in the test on HOP-92 NSCLC, in the test with NCI-H23 lung, with NCI-H226 lung, with UACC-62 melanoma, in the test on CAKI-1 renal and with SK-MEL-28 melanoma was over 100 µM each time. For the same compound, the TGI with RPMI-8226 leukemia, in the test on SK-OV-3 ovarian and with HCT-116 colon was over 100 µM each time.

As to `COC(=O)/C(C#N)=C1\N=NNN1c1ccc(OC)cc1`, the TGI in the test with HOP-92 NSCLC, with NCI-H23 lung, in the test on NCI-H226 lung, in the test with UACC-62 melanoma, in the test on CAKI-1 renal and with SK-MEL-28 melanoma was over 100 µM in each case. Moreover, the TGI with RPMI-8226 leukemia, in the test on SK-OV-3 ovarian and in the test on HCT-116 colon was over 100 µM in each case.

Consider `COc1ccc2c(c1OCC(=O)O)C(=O)C(CCC(=O)O)CC2` (stereo unspecified), for which the TGI with NCI-H23 lung, in the test on UACC-62 melanoma, with CAKI-1 renal, with SK-MEL-28 melanoma, with RPMI-8226 leukemia and in the test with SK-OV-3 ovarian was over 100 µM throughout. In the test with HCT-116 colon, this compound registered a TGI of over 100 µM.

Regarding `CCN(CC)CCNc1nc(N)c(C#N)c(C#N)c1C#N`, the TGI in the test on HOP-92 NSCLC, with NCI-H23 lung, in the test on NCI-H226 lung, in the test with UACC-62 melanoma, in the test with CAKI-1 renal and in the test with SK-MEL-28 melanoma was over 10 µM throughout. Further, the TGI in the test with RPMI-8226 leukemia, in the test with SK-OV-3 ovarian and in the test on HCT-116 colon was over 10 µM in each case.

Consider `COC1C(OC(=S)Nc2ccccc2)c2ccccc2N1C(C)=O` (stereo unspecified), for which the TGI is 92.2 µM in the test on HOP-92 NSCLC; over 100 µM in the test with NCI-H23 lung; over 100 µM in the test on UACC-62 melanoma; over 100 µM in the test on CAKI-1 renal; over 100 µM in the test on SK-MEL-28 melanoma; over 100 µM in the test with RPMI-8226 leukemia. Moreover, the TGI in the test with HCT-116 colon and in the test on SK-MEL-2 melanoma was over 100 µM in each case.

On to `COc1ccc(CCN(C)C2CCC(C#N)(c3ccc(OC)c(OC)c3)CC2)cc1OC` (stereo unspecified), for which the TGI in the test with HOP-92 NSCLC, in the test with NCI-H23 lung, in the test on NCI-H226 lung, with UACC-62 melanoma, in the test with SK-MEL-28 melanoma and in the test with RPMI-8226 leukemia was over 100 µM throughout. The TGI with SK-OV-3 ovarian, with HCT-116 colon and in the test on SK-MEL-2 melanoma was over 100 µM each time.

Take `CC1(C)COC(c2cccc3c2C(=O)c2cccc(Cl)c2-3)=N1`: the TGI in the test on NCI-H23 lung, with UACC-62 melanoma, in the test on CAKI-1 renal, in the test on SK-MEL-28 melanoma, in the test on RPMI-8226 leukemia and in the test with SK-OV-3 ovarian was over 100 µM in each case. The same compound returned a TGI with SK-MEL-2 melanoma of over 100 µM.
